Biological target: T1, α-N-acetylgalactosaminidase (from chicken liver) (Gallus gallus, UniProt Q90744)
T1 construct: originated from chicken liver (a product of Sigma Company); purchased Sigma Company; host or cells: chicken liver
T1 sequence (Q90744 1-405): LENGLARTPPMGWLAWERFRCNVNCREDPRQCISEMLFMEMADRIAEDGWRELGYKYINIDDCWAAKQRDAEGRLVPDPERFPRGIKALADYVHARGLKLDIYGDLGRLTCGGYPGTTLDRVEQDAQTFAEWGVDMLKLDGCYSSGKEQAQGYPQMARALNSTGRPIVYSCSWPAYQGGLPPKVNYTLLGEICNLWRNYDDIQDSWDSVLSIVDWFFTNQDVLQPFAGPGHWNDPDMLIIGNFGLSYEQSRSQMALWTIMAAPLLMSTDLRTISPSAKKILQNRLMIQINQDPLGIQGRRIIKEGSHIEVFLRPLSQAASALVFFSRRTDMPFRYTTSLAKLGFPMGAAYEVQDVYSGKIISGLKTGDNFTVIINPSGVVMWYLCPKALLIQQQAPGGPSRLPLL
Assay: α-N-acetylgalactosaminidase inhibition (Test Example 1)
Assay type: biochemical
Settings: for IC50: α-N-acetylgalactosaminidase from chicken liver, substrate p-nitrophenyl-N-acetyl-α-D-galactosaminide, pH 4.0, 37° C., 30 minutes, read-out: 50% inhibiory concentration (IC50) Enzyme A (converted)
Method: This Test Example is a test example for determining the N-acetylgalactosaminidase-inhibitory activity of the compound of the formula (I), (V) or (X) according to this invention.
Assay of the N-acetylgalactosaminidase-inhibitory activity was conducted according to a modification of the method described in the “Journal of Biological Chemistry”, 252, pp.5194-5200(1977).
Thus, 0.5 mL of 0.025M citrate-phosphate buffer (pH 4.0), 0.1 mL of the same buffer containing 10 mM p-nitro-phenyl-N-acetyl-α-D-galactosaminide dissolved therein, and 0.1 mL of either water or an aqueous solution containing as the test compound any one of the compounds of the formulae (I), (V) and (X) according to this invention were mixed with each other and pre-incubated in a 96-wells titer plate at 37° C. for 10 minutes. After the completion of the pre-incubation, to the pre-incubated mixture was added 0.01 mL of 0.025 M citrate-phosphate buffer containing α-N-acetyl-galactosaminidase originated from chicken liver (a product of Sigma Company) which was dissolved in said buffer as a glycosidase to be tested. Thereafter, the enzymatic reaction was conducted at 37° C. for 30 minutes.
After the enzymatic reaction, to the reaction solution was added 1.0 mL of 0.3M glycine—sodium hydroxide buffer (pH 10.5), in order to terminate the enzymatic reaction. Thereafter, the absorbance [designated as value (a)] of light at 405 nm of the resulting reaction solution was measured. Concurrently, measurement was made of the absorbance [designated as value (b)] at 405 nm of the reaction solution as obtained in the control test where the enzymatic reaction was conducted without addition of the test compound. Further, measurements were made of the absorbance [designated as values (a′)] and the absorbance [[designated as values (b′)] at 405 nm of the solutions as obtained in the blank test and the control test, respectively, where the enzymatic reaction was not conducted in the assay test. The rate of inhibition to […] was calculated by the equation: [1-(a-a′)/(b-b′)]×100.
The test results obtained are summarized as IC50 value in Table 1 below.

`O=C(N[C@H]1NC[C@H](CO)[C@H](O)[C@@H]1O)C(F)(F)F` [Formula (I), 6-deacetamido-3-decarboxy-3-hydroxymethyl-6-trifluoroacetamido-siastain B] was tested, and the “inhibition of N-acetyl-galactosaminidase, in words” value (summary of Table 1) was “inhibit strongly” and the IC50 was 2.52 µM.

For `CC(=O)NC1NCC(CO)C(O)C1O` (stereo not drawn) [Formula (V), 3-decarboxy-4-epi-3-hydroxymethyl-siastain B], the IC50 was greater than 490 µM.

With `O=C(N[C@H]1NC[C@H](CO)[C@@H](O)[C@@H]1O)C(F)(F)F` [Formula (X), 6-deacetamido-3-decarboxy-4-epi-3-hydroxymethyl-6-trifluoroacetamido-siastain B] the IC50 was greater than 387 µM.

Source: patent US6852735B1, “Siastatin B derivatives having a glycosidase inhibitory activity and processes for producing the same” (Zaidan Hojin Biseibutsu Kagaku Kenkyu Kai, priority 1998, dated 2005)
